This is an account of results in patent US7094429B2, “Process for preparing tannate liquid and semi-solid dosage forms” (Kiel Laboratories, Inc., priority 2001, dated 2006).

Data set [1] can be described thus: Conversion process: active dissolved in supernatant of centrifuged MAS/tannic acid conversion samples. The settings on record: for Assay (% Dissolved) 10 mins / Assay (% Dissolved) 20 mins / Assay (% Dissolved) 30 mins: in-situ tannate conversion, centrifuged at 6500 rpm; for Assay (% Dissolved) 10 mins: supernatant after 10 min mixing; for Assay (% Dissolved) 20 mins: supernatant after 20 min mixing; for Assay (% Dissolved) 30 mins: supernatant after 30 min mixing.
Protocol: The active solution of carbetapentane citrate is prepared by dissolving 24.4 g of carbetapentane citrate into 60 ml of water. 530 ml of purified water is placed in a mixing tank and 53.7 g of MAS is added in small portions while mixing the water to form a dispersion. Once the dispersion is uniform and lump-free, 46.7 g of tannic acid (TA), (three times that of the free base of the active), is folded into the dispersion using a planetary mixer with a sweep blade. […] The salt solution is then added in small portions, while continuing to stir the MAS/tannic acid dispersion using the planetary mixer. After all of the salt solution is added, the weight is made up to 800 g with purified water. Mixing is continued and 5 g samples of the conversion after ten, twenty and thirty minutes of mixing are taken in a centrifuge tube. The samples are subsequently centrifuged at 6500 rpm and the resulting supernatant solution is assayed for the presence of active. At the end of thirty minutes, a 10 g sample of the conversion is taken for assay of the actives.

The conditions of data set [2]: cited from earlier work.

For the compound `CCN(CC)CCOCCOC(=O)C1(c2ccccc2)CCCC1` [Carbetapentane], in data set [1], the “Assay (% Dissolved) 10 mins” value was determined as 0.08%, the “Assay (% Dissolved) 20 mins” value came to 0.08% and the “Assay (% Dissolved) 30 mins” value was 0.09%.
Take `CN(C)CCC(c1ccc(Cl)cc1)c1ccccn1` (centres unmarked) [Chlorpheniramine]: in data set [1], the “Assay (% Dissolved) 10 mins” value was 0.12%, the “Assay (% Dissolved) 20 mins” value is 0.13% and the “Assay (% Dissolved) 30 mins” value is on record as 0.14%.
As for `CNC[C@H](O)c1cccc(O)c1.Cl` [Phenylephrine HCI], the soluble in water entry in data set [2] was “about 100.0%”. The “amount of active ingredient present in solution at the ten, twenty and thirty minute mixing times” value in data set [1] (in-situ tannate conversion in MAS/tannic acid dispersion) was “more than 47.0%”.
As for `CNC[C@H](O)c1cccc(O)c1` [Phenylephrine], in data set [1], the “Assay (% Dissolved) 10 mins” value is on record as 37.14%, the “Assay (% Dissolved) 20 mins” value was found to be 47.6% and the “Assay (% Dissolved) 30 mins” value is 47.6%.
Consider `COc1ccc(CN(CCN(C)C)c2ccccn2)cc1` [Pyrilamine], for which, in data set [1], the “Assay (% Dissolved) 10 mins” value came to 0.10%, the “Assay (% Dissolved) 20 mins” value worked out at 0.10% and the “Assay (% Dissolved) 30 mins” value came out at 0.11%.
